# In patent US20220249674A1, “BIOACTIVE SAPONIN LINKED TO A FUNCTIONAL MOIETY” (priority 2019, published 2022):
# Like-named read-outs stand apart in the source and are kept apart here.
# Key:
# [1] = test system: NIH-3T3 cells; conditions: saporins; cited from earlier work
# [2] = test system: mammalian cells; assay: Cell-based bioassay of endosomal escape enhancement by QS-21; conditions: 2.5 microgram/ml; effector moiety EGF-dianthin
# Description: The effector moiety exposed to the cells was EGF-dianthin.
# [3] = test system: SK-BR-3, JIMT-1, MDA-MB-468, A431, CaSki, HeLa, A2058, BT-474; assay: Relative cell viability, mAb / toxin / mAb-toxin monotherapy (FIG. 11); format: cell-based; design: dose or concentration left out as unconfirmed; conditions: panel of cell lines
# Description: After treatment the cells were incubated for 72 hr at 37° C. before the cell viability was determined by a MTS-assay, performed according to the manufacturer's instruction (CellTiter 96® AQueous One Solution Cell Proliferation Assay, Promega). Briefly, the MTS solution was diluted 20× in DMEM without phenol red (PAN-Biotech GmbH) supplemented with 10% FBS (PAN-Biotech GmbH). […] Subsequently, the optical density at 492 nm was measured on a Thermo Scientific Multiskan FC plate reader (Thermo Scientific). For quantification the background signal of ‘medium only’ wells was subtracted from all other wells, before the ratio of untreated/treated cells was calculated, by dividing the background corrected signal of untreated wells over the background corrected signal of the treated wells.
# [4] = test system: HeLa cells; assay: Cell viability assay, inhibition of SO1861-mediated endosomal escape by polymeric structures (Example 19); format: cell-based; conditions: SO1861 series + […] dianthin-EGF, 500 nM PAMAM (derivative) or chloroquine, 667 nM dendron
# [5] = combinatory treatment with saponins; cited from earlier work
# [6] = test system: HeLa cells; assay: Cell-based bioassay of chemically modified SO1861 with dianthin-EGF (Example 8)
# Description: HeLa cells were incubated for 72 h with the following constructs and cell viability before and after the 72 h-incubation was assessed. In the experiments, cells were exposed to 1.5 μM dianthin-EGF conjugate. A negative control were cells incubated with buffer vehicle and 10 microgram/ml saponin, without dianthin-EGF. Cell viability was set to 100% for the control in which both saponin and EGF-dianthin were omitted. […] Cell viability after 72 h was essentially 0%. For the chemically modified saponin variants, 10 microgram/ml saponin was tested in combination with 1.5 μM dianthin-EGF.
# [7] = test system: A431 cells; format: cell-based, human; conditions: chloroquine coadministration, with cetuximab-saporin (FIG. 52)
# Description: Cells were seeded in a 96 well plate at 5.000-10.000 c/w in 100 μL/well and incubated overnight at 37° C. […] The media was removed from the cell culture plate and replaced by 180 μL culture media, followed by the addition of 20 μL treatment-mix/well. […] In the case that endosomal acidification inhibitors (chloroquine (Sigma Aldrich) or bafilomycin A1 (Enzo Life Sciences)) were used, the cell culture media in step 1 of treatment was replaced by 180 μL media containing 1 μM chloroquine or 0.2 μM bafilomycin A1. The plate was incubated for 1 hour at 37° C., before the 10× treatment-mix samples were added. The remaining incubation and treatment steps were performed according to standard procedures known in the field.
# [8] = pH dependent hydrolysis of the hydrazone bond (MALDI-TOF-MS); format: physicochemical; conditions: HCl solution at pH 3
# [9] = test system: EGFR expressing cells (e.g. A431, HeLa); format: cell-based; design: key: Cell killing activity (+ or −); Cell killing activity (+ or −)
# Description: The saponin is either linked to the ligand directly, or via a (cleavable) linker, via a scaffold, a carrier protein, etc., etc.
compound,measurement,setting,value
CC1(C)[C@@H](O[C@H]2O[C@H](C(=O)O)[C@@H](O)[C@H](O)[C@H]2O[C@@H]2O[C@H](C(=O)O)[C@@H](O)[C@H](O)[C@H]2O)CC[C@]2(C)[C@H]3C(=O)C=C4[C@@H]5C[C@@](C)(C(=O)O)CC[C@]5(C)CC[C@@]4(C)[C@]3(C)CC[C@@H]12 [glycyrrhizic acid],enhancing effect on toxin toxicity (in words),[1],do hardly have any positive effect
QS-21,endosomal escape enhancement (in words),[2],capable of enhancing endosomal escape
saporin,relative cell viability (in words),[3],do not or hardly have any influence on cell viability
CCN(CC)CCCC(C)Nc1ccnc2cc(Cl)ccc12 (centres unmarked) [chloroquine],inhibition of SO1861-mediated endosomal escape of the targeted toxin (in words),[4],inhibit the SO1861-mediated endosomal escape of the targeted toxin
Pseudomonas exotoxin A: bacterial toxin,enhancement of cytotoxicity by saponins (in words),[5],remained unaffected
CC(=O)OC1C(C)OC(OC2C(C)OC(OC(=O)[C@]34CCC(C)(C)CC3C3=CCC5[C@@]6(C)CC[C@H](OC7OC(C(=O)O)C(O)C(OC8OCC(O)C(O)C8O)C7OC7OC(CO)C(O)C(O)C7O)[C@@](C)(/C=N/NC(=O)CCCCCN7C(=O)C=CC7=O)C6CC[C@@]5(C)[C@]3(C)C[C@H]4O)C(OC3OC(C)C(OC4OCC(O)C(OC5OC(CO)C(O)C(O)C5O)C4O)C(O)C3O)C2O)C(O)C1OC1OCC(O)C(O)C1O (some centres unmarked) [SO1861-EMCH],cell viability (in words),[6],reduced cell viability
same,activity when endosomal acidification is blocked (in words),[7],strongly reduces the activity
same,hydrolysis of the hydrazone bond (in words),[8],responsive towards hydrolysis and gets cleaved
same,Cell killing activity,[9]; 10 μg/ml SO1861 (conjugate) + […] EGFdianthin,+
same,Cell killing activity,"[9]; 10 μg/ml SO1861 (conjugate), without EGFdianthin",−
helianthoside,enhancing effect on toxin toxicity (in words),[1],do hardly have any positive effect
